From US20240166693A1, “METHODS AND COMPOUNDS FOR MODULATING MYOTONIC DYSTROPY 1” (Design Therapeutics, Inc., priority 2020, published 2024)

test system: Myotonic Dystrophy 1 affected patient fibroblasts (Coriell GM04602; 1600 CTG repeats); test: DM1 foci reduction assay (CAG10-Cy3 FISH, average foci per nucleus); format: cell-based; settings: Homo sapiens, Fibroblast, 48 h, read-out: Foci Reduction in Fibroblast EC50, 48 h (nM)
Experimental: DM1 foci reduction assay methods: Myotonic Dystrophy 1 affected patient fibroblasts (Coriell GM04602; 1600 CTG repeats) and wild type fibroblasts (Coriell GM07492; control line) were cultured separately in Gibco DMEM (1×)+4.5 g/L D-Glucose+L-Glutamine+110 mg/L Sodium Pyruvate, supplemented with 10% FBS and 1× Pen/Strep. Cells were maintained in incubator at 37° C. and 5% CO2 with media refresh every 48-72 hours.
At 90-95% confluency, both cell lines were harvested using Trypl-E then pelleted at 500×g for 5 minutes and were resuspended in media. DM1 fibroblasts were seeded in Agilent 96 well black plates at a density of 5,000 cells/well in 200 μL media; 8 wells were reserved for control fibroblasts. Plates were returned to incubator for 24 hours at 37° C. and 5% CO2.
Compounds were diluted from 10 mM stock to 1 mM in DMSO, then diluted once more to 6 μM (2× concentration) in media. Media was removed from all plates and cells were replenished with 100 μL media. Cells were treated in 8-point dose response, 1:3 fold dilution, 3 μM top dose via addition of 100 μL of 6 μM (2× concentration) compound to the 100 μL media with cells. Plates were returned to incubator for 48-hour time-course experiment at 37° C. and 5% CO2.
Following treatment, compounds were removed, and plates were washed with PBS, then cells were fixed in 75 μL 4% PFA solution for 20 minutes at room temperature. Plates were washed twice with PBS and twice with cold 70% ethanol before permeabilization with 250 μL cold 70% ethanol for 24-72 hours at −20° C.
After permeabilization, plates were washed once with a 30% formamide and 2×SSC buffer and rehydrated in that buffer for 15 minutes at room temperature. Cells were incubated overnight at 37° C. in 75 μL of a hybridization solution containing 30% formamide, 2×SSC, 25 mg/mL dextran sulfate, 2.5 mg/mL BSA, 0.2 μg/mL Herring sperm DNA, 2 mM vanadyl-ribonucleoside complex, and 5 nM CAG10-Cy3 probe.
Plates were washed once with 30% formamide in 2×SSC buffer, then twice with the buffer for 30 minutes at 37° C., 300 RPM in an incubating plate shaker. Cells were stained with 75 μL of 2.5 μg/mL DAPI in PBS for 5 minutes at room temperature. Plates were then washed twice with PBS and stored in 250 μL PBS. Plates were sealed with adhesive foil and wiped down with 70% ethanol.
Cells were imaged on a Cytation5 with a 20× objective sampling from 4 areas of each well. Nuclei were captured under DAPI channel and foci under RFP channel. Plates were analyzed on an average foci per nucleus per well basis.

Q: Which EC50 does the source give for CCN(CC)CCCC[C@H](NC(=O)Cc1nc2cc(CC(=O)Nc3ccc(C(C)(C)C)cc3)cnc2[nH]1)C(=O)N[C@@H](CO)C(=O)NCCOCCOCCOCCOCCOCCNC(=O)CCNC(=O)c1nc(NC(=O)c2cc(NC(=O)CCNC(=O)c3nc(NC(=O)CCCNC(=O)c4cc(NC(=O)c5nc(NC(=O)CCNC(=O)c6cc(NC(=O)c7nccn7C)cn6C)cn5C)cn4C)cn3C)cn2C)cn1C [Compound 152] here?
A: 100 to 500 nM

Q: With CCN(CC)CCCC[C@H](NC(=O)N1CC(c2cnc(CNC(=O)c3ccc(C(C)(C)C)cc3)[nH]2)C1)C(=O)N[C@@H](CO)C(=O)NCCOCCOCCOCCOCCOCCNC(=O)CCNC(=O)c1nc(NC(=O)c2cc(NC(=O)CCNC(=O)c3nc(NC(=O)CCCNC(=O)c4cc(NC(=O)c5nc(NC(=O)CCNC(=O)c6cc(NC(=O)c7nccn7C)cn6C)cn5C)cn4C)cn3C)cn2C)cn1C [Compound 155] as the molecule, how does the EC50 read?
A: 100 to 500 nM

Q: For CCN(CC)CCCC[C@H](NC(=O)[C@H](CC(C)C)NC(=O)[C@H](C)NC(=O)[C@H](Cc1ccccc1)NC(=O)c1ccccc1)C(=O)N[C@@H](CO)C(=O)NCCOCCOCCOCCOCCOCCNC(=O)c1cc(NC(=O)c2cc(NC(=O)c3nc(NC(=O)c4cc(NC(=O)[C@@H](N)CCNC(=O)c5nc(NC(=O)CCNC(=O)c6cc(NC(=O)c7nccn7C)cn6C)cn5C)cn4C)cn3C)cn2C)cn1C [Compound 90], which EC50 is on record?
A: > 500 nM

Q: For CCN(CC)CCCC[C@H](NC(=O)[C@H](CC(C)C)NC(=O)[C@H](C)NC(=O)[C@H](Cc1ccccc1)NC(=O)c1ccc(C(C)(C)C)cc1)C(=O)N[C@@H](CO)C(=O)NCCOCCOCCOCCOCCOCCNC(=O)c1nc(NC(=O)CCNC(=O)c2cc(NC(=O)c3nc(NC(=O)[C@H](N)CCNC(=O)c4cc(NC(=O)c5nc(NC(=O)c6cc(NC(=O)c7cccn7C)cn6C)cn5C)cn4C)cn3C)cn2C)cn1C [Compound 108], which EC50 is on record?
A: 100 to 500 nM

Q: CCN(CC)CCCC[C@H](NC(=O)[C@H](CC(C)C)NC(=O)[C@H](C)NC(=O)[C@H](Cc1ccccc1)NC(=O)c1ccc(C(C)(C)C)cc1)C(=O)N[C@@H](CO)C(=O)NCCOCCOCCOCCOCCOCCNC(=O)c1cc(NC(=O)c2nc(NC(=O)[C@H](N)CCNC(=O)c3cc(NC(=O)c4nc(NC(=O)CCNC(=O)c5cc(NC(=O)c6nccn6C)cn5C)cn4C)cn3C)cn2C)cn1C [Compound 111] was tested. Which EC50 did it give?
A: > 500 nM

Q: How did the EC50 turn out when CCN(CC)CCCC[C@H](NC(=O)[C@H](CC(C)C)NC(=O)[C@H](C)NC(=O)[C@H](Cc1ccccc1)NC(=O)c1ccc(C(C)(C)C)cc1)C(=O)N[C@@H](CO)C(=O)NCCOCCOCCOCCOCCOCCNC(=O)c1nc(NC(=O)CCNC(=O)c2cc(NC(=O)c3nc(NC(=O)CCCNC(=O)c4cc(NC(=O)c5nc(NC(=O)c6cc(NC(=O)c7cc(NC(=O)c8nccn8C)cn7C)cn6C)cn5C)cn4C)cn3C)cn2C)cn1C [Compound 106] was run?
A: > 500 nM

Q: CCN(CC)CCCC[C@H](NC(=O)[C@H](CC(C)C)NC(=O)[C@H](C)NC(=O)[C@H](Cc1ccccc1)NC(=O)c1ccccc1)C(=O)N[C@@H](CO)C(=O)NCCOCCOCCOCCOCCOCCNC(=O)CCNC(=O)c1nc(NC(=O)c2cc(NC(=O)CCNC(=O)c3nc(NC(=O)CCCNC(=O)c4cc(NC(=O)c5nc(NC(=O)CCNC(=O)c6cc(NC(=O)c7nccn7C)cn6C)cn5C)cn4C)cn3C)cn2C)cn1C [Compound 87] was tested. Which EC50 did it give?
A: < 100 nM

Q: For CCN(CC)CCCC[C@H](NC(=O)[C@H](CC(C)C)NC(=O)[C@H](C)NC(=O)[C@H](Cc1ccccc1)NC(=O)c1ccc(C(C)(C)C)cc1)C(=O)N[C@@H](CO)C(=O)NCCOCCOCCNC(=O)c1cc(NC(=O)c2nc(NC(=O)c3cc(NC(=O)[C@@H](N)CCNC(=O)c4nc(NC(=O)c5cc(NC(=O)c6cc(NC(=O)c7nccn7C)cn6C)cn5C)cn4C)cn3C)cn2C)cn1C [Compound 79], which EC50 is on record?
A: > 500 nM

Q: CCN(CC)CCCC[C@H](NC(=O)[C@H](CC(C)C)NC(=O)[C@H](C)NC(=O)[C@H](Cc1ccccc1)NC(=O)c1ccc(C(C)(C)C)cc1)C(=O)N[C@@H](CO)C(=O)NCCOCCOCCOCCOCCOCCNC(=O)c1nc(NC(=O)c2cc(NC(=O)CCNC(=O)c3nc(NC(=O)CCCNC(=O)c4nc(NC(=O)c5nc(CC(=O)CCNC(=O)c6cc(NC(=O)c7nccn7C)cn6C)cn5C)cn4C)cn3C)cn2C)cn1C [Compound 103] was tested. Which EC50 did it give?
A: < 100 nM

Q: Which EC50 does the source give for CCN(CC)CCCC[C@H](NC(=O)[C@H](CC(C)C)NC(=O)[C@H](C)NC(=O)[C@H](Cc1ccccc1)NC(=O)c1ccc(C(C)(C)C)cc1)C(=O)N[C@@H](CO)C(=O)NCCNC(=O)CCNC(=O)c1nc(NC(=O)c2cc(NC(=O)CCNC(=O)c3nc(NC(=O)CCCNC(=O)c4cc(NC(=O)c5nc(NC(=O)CCNC(=O)c6cc(NC(=O)c7nccn7C)cn6C)cn5C)cn4C)cn3C)cn2C)cn1C [Compound 70] here?
A: < 100 nM

Q: How did the EC50 turn out when CC(C)C[C@H](NC(=O)[C@H](C)NC(=O)[C@H](Cc1ccccc1)NC(=O)c1ccc(C(C)(C)C)cc1)C(=O)N[C@@H](CCCCN(C)C1CC2CCC1C2)C(=O)N[C@@H](CO)C(=O)NCCOCCOCCOCCOCCOCCNC(=O)CCNC(=O)c1nc(NC(=O)c2cc(NC(=O)CCNC(=O)c3nc(NC(=O)CCCNC(=O)c4cc(NC(=O)c5nc(NC(=O)CCNC(=O)c6cc(NC(=O)c7nccn7C)cn6C)cn5C)cn4C)cn3C)cn2C)cn1C (some centres unmarked) [Compound 59] was run?
A: 100 to 500 nM

same assay, conditions: Homo sapiens, Fibroblast; DM1 fibroblasts, 48 h treatment, 8-point dose response, 3 μM top dose; read-out: Foci Reduction in Fibroblast EC50, 48 h

Q: Which EC50 does the source give for Cc1nc(CCC(=O)NCCOCCOCCOCCOCCOCCOCCOCCOCCOCCOCCOCCOCCOCCOCCOCCNC(=O)CCNC(=O)c2nc(NC(=O)c3cc(NC(=O)CCNC(=O)c4nc(NC(=O)CCCNC(=O)c5cc(NC(=O)c6nc(NC(=O)CCNC(=O)c7cc(NC(=O)c8nccn8C)cn7C)cn6C)cn5C)cn4C)cn3C)cn2C)ccc1-c1cnc(NCc2c(F)ccc3c2CCO3)n2cnnc12 [Compound 63] here?
A: > 500 nM

Q: For COc1c(OCCOCCOCCOCCOCCOCCNC(=O)CCNC(=O)c2nc(NC(=O)c3cc(NC(=O)CCNC(=O)c4nc(NC(=O)CCCNC(=O)c5cc(NC(=O)c6nc(NC(=O)CCNC(=O)c7cc(NC(=O)c8nccn8C)cn7C)cn6C)cn5C)cn4C)cn3C)cn2C)cccc1C(=O)N1CCN(C(=O)COc2ccc(NC(N)=O)c(C)c2)CC1 [Compound 95], which EC50 is on record?
A: > 500 nM

Q: With Cn1cc(NC(=O)c2nc(NC(=O)CCNC(=O)c3cc(NC(=O)c4nccn4C)cn3C)cn2C)cc1C(=O)NCCCC(=O)Nc1cn(C)c(C(=O)NCCC(=O)Nc2cc(C(=O)Nc3cn(C)c(C(=O)NCCC(=O)NCCOCCOCCn4cc(CCCCN(Cc5ccc(C(=O)NO)cc5)C(=O)Nc5ccccc5)nn4)n3)n(C)c2)n1 [Compound 125] as the molecule, how does the EC50 read?
A: > 500 nM

Q: With Cn1cc(CCn2c(CNCCOCCOCCOCCOCCOCCNC(=O)CCNC(=O)c3nc(NC(=O)c4cc(NC(=O)CCNC(=O)c5nc(NC(=O)CCCNC(=O)c6cc(NC(=O)c7nc(NC(=O)CCNC(=O)c8cc(NC(=O)c9nccn9C)cn8C)cn7C)cn6C)cn5C)cn4C)cn3C)nc(-c3cnn(C)c3)c2-c2ccc(C#N)cc2)cn1 [Compound 172] as the molecule, how does the EC50 read?
A: > 500 nM

Q: COc1cccc(C(=O)N2CCN(C(=O)CN(C(=O)COCCOCCOCCOCCOCCNC(=O)CCNC(=O)c3nc(NC(=O)c4cc(NC(=O)CCNC(=O)c5nc(NC(=O)CCCNC(=O)c6cc(NC(=O)c7nc(NC(=O)CCNC(=O)c8cc(NC(=O)c9nccn9C)cn8C)cn7C)cn6C)cn5C)cn4C)cn3C)c3ccc(NC(N)=O)c(C)c3)CC2)c1OC [Compound 143] was tested. Which EC50 did it give?
A: > 500 nM

Q: Which EC50 does the source give for COc1cc2nc(N3CCCCC3)nc(NC3CCN(CCOCCOCCOCCOCCOCCNC(=O)CCNC(=O)c4nc(NC(=O)c5cc(NC(=O)CCNC(=O)c6nc(NC(=O)CCCNC(=O)c7cc(NC(=O)c8nc(NC(=O)CCNC(=O)c9cc(NC(=O)c%10nccn%10C)cn9C)cn8C)cn7C)cn6C)cn5C)cn4C)CC3)c2cc1OC [Compound 192] here?
A: > 500 nM

Q: How did the EC50 turn out when CCCCN(Cc1ccc(C(=O)NO)cc1)C(=O)Nc1ccc(OCc2cn(CCOCCOCCOCCOCCOCCOCCNC(=O)CCNC(=O)c3nc(NC(=O)c4cc(NC(=O)CCNC(=O)c5nc(NC(=O)CCCNC(=O)c6cc(NC(=O)c7nc(NC(=O)CCNC(=O)c8cc(NC(=O)c9nccn9C)cn8C)cn7C)cn6C)cn5C)cn4C)cn3C)nn2)cc1 [Compound 128] was run?
A: > 500 nM

Q: With CC(C)c1cnn2c(NCc3ccc(OCCOCCOCCOCCOCCOCCOCCOCCOCCOCCOCCOCCOCCOCCOCCOCCNC(=O)CCNC(=O)c4nc(NC(=O)c5cc(NC(=O)CCNC(=O)c6nc(NC(=O)CCCNC(=O)c7cc(NC(=O)c8nc(NC(=O)CCNC(=O)c9cc(NC(=O)c%10nccn%10C)cn9C)cn8C)cn7C)cn6C)cn5C)cn4C)cc3-n3cccn3)nc(OC3CCCNC3)nc12 (centres unmarked) [Compound 54] as the molecule, how does the EC50 read?
A: > 500 nM

Q: CCN(c1cc(-c2ccc(CN3CCN(CCOCCOCCOCCOCCOCCOCCOCCOCCOCCOCCNC(=O)CCNC(=O)c4nc(NC(=O)c5cc(NC(=O)CCNC(=O)c6nc(NC(=O)CCCNC(=O)c7cc(NC(=O)c8nc(NC(=O)CCNC(=O)c9cc(NC(=O)c%10nccn%10C)cn9C)cn8C)cn7C)cn6C)cn5C)cn4C)CC3)cc2)cc(C(=O)NCc2c(C)cc(C)[nH]c2=O)c1C)C1CCOCC1 [Compound 167] was tested. Which EC50 did it give?
A: > 500 nM
